Reference: EP0073997A1, “Substituted 2-amino-3,4-dihydro-pyridine derivatives, process for their preparation and their use in medicines” (BAYER AG, priority 1981, dated 1983)

System: Wistar-Ratten
Test: Cholesterol load test: liver cholesterol after oral cholesterol load
Assay type: in vivo
Conditions: Dosis 10 mg/kg p.o.; given together with cholesterol in 0,75 % tragacanth suspension; liver cholesterol after 24 h
Protocol: Cholesterol- bzw. Fettbelastungstests wurden an nüchternen männlichen oder weiblichen Wistar-Ratten mit einem Körpergewicht zwischen 130-230 g durchgeführt.
Cholesterol-Belastung: • Cholesterol und die zu prüfende Substanz wurden in 0,75 %iger Traganth-Suspension gleichzeitig oral appliziert. Nach 24 h wurden die Tiere getötet und der Cholesterolgehalt in der Leber bestimmt. Cholesterol wurde nach der Liebermann-Burchard-Methode mit der Testkombination von Boehringer Mannheim bestimmt. Kontrolltiere erhielten ein entsprechendes Volumen Cholesterol-Traganth-Suspension ohne Testsubstanz. Zur Kontrolle des Cholesterol-Anstiegs als Folge der Cholesterol-Belastung wurde einer weiteren Kontrollgruppe Traganth-Suspension ohne Cholesterol oral appliziert.

Molecule | Verminderung des Lebercholesterinanstiegs im Vergleich zur Kontrolle nach oraler Cholesterinbelastung in Prozent
6-Methyl-2-(4-phenylpiperazino)-4,5-bis(2-pyrrolidinomethylphenyl)-3,4-dihydropyridin [Beispiel 18] | 34,1%
Clc1ccc(C2CC(N3CCN(c4ccccc4)CC3)=NC3=C2c2ccccc2CC3)cc1 (stereo not drawn) [Beispiel 1, 4-(4-Chlorphenyl)-2-(4-phenylpiperazino)-3,4,5,6-tetrahydronaphthalino(a)pyridin] | 51,7%
Clc1ccc(C2=CC(c3ccc(Cl)cc3)CC(N3CCN(c4ccccc4)CC3)=N2)cc1 (stereo not drawn) [Beispiel 8] | 21,3%
CC(=O)OCc1ccc(C2=C(C)N=C(N3CCN(c4ccccc4)CC3)CC2c2ccc(COC(C)=O)cc2)cc1 (stereo not drawn) [Beispiel 9] | 17,7%
CC1=C(c2cccc(CO)c2)C(c2cccc(CO)c2)CC(N2CCN(c3ccccc3)CC2)=N1 (stereo not drawn) [Beispiel 13] | 37,9%
CC1=C(c2ccc(N(C)C)cc2)C(c2ccc(CO)cc2)CC(N2CCN(c3ccccc3)CC2)=N1 (stereo not drawn) [Beispiel 16] | 36,7%
CC1=C(c2ccccc2)C(c2cccc(CN3CCCC3)c2)CC(N2CCN(c3ccccc3)CC2)=N1 (stereo not drawn) [Beispiel 17, 6-Methyl-5-phenyl-2-(4-phenylpiperazino)-4-(3-pyrro-lidinomethylphenyl)-3,4-dihydropyridin] | 22,9%
CC1=C(c2ccccc2)C(c2cccc(COC(=O)CCCC(=O)O)c2)CC(N2CCN(c3ccccc3)CC2)=N1 (stereo not drawn) [Beispiel 19, 4-(3-(5-Carboxybutyryloxymethyl)-phenyl)-6-methyl-5-phenyl-2-(4-phenylpiperazino)-3,4-dihydropyridin] | 36,3%
C=CCC1C(N2CCN(c3ccccc3)CC2)=NC(C)=C(c2ccccc2)C1c1ccccc1 (stereo not drawn) [Beispiel 21] | 34,9%
COc1ccc(C2=C(C)N=C(N3CCCC3)C(C)C2c2ccc(OC)cc2)cc1 (stereo not drawn) [Beispiel 25] | 22,6%
CC1=C(c2ccc(N(C)C)cc2)C(c2ccc(Cl)cc2)C(CC(=O)OC(C)(C)C)C(N2CCN(c3ccccc3)CC2)=N1 (stereo not drawn) [Beispiel 29] | 12,0%
CC1=C(c2ccccc2)C(c2ccccc2)C(CO)C(N2CCN(c3ccccc3)CC2)=N1 (stereo not drawn) [Beispiel 34] | 23,9%
